In patent US10220069B2, “Compositions and methods for treating diabetes” (THE JOHNS HOPKINS UNIVERSITY, priority 2014, dated 2019):

Key:
Kiss1R [1] = target: T1, Kiss1R (Mus musculus, UniProt Q91V45); test: Islet cAMP concentrations (ELISA) in response to kisspeptin; assay type: cell-based
T1 construct: Mouse brain, mouse islets, insulinoma cells, and human islets express Kiss1R; from tissue; host or cells: isolated mouse pancreatic islets (WT / Kiss1Rfl/fl, C57Bl/6 background)
Description: (§1) For studies with plasma incubation, a final concentration of plasma was 1% or 10% (vol/vol). […] Islets were taken in 0.18M HCL/70% ethanol to extract and measure total islet insulin content. cAMP concentrations were measured in islet extracts using ELISA (Enzo Life Sciences).

islets = test: Islets incubated 48 hours with K54: cAMP dependent, ER stress, oxidative stress and NLRP3 inflammasome markers (Table 5); assay type: cell-based, mouse; settings: K54 10 nM
Description: Kisspeptin1 Causes ERS and UPR in Islets Independently of Hyperglycemia. […] Because reduction in cAMP signaling in β-cells reduces IRS2 and PDX1 and provokes ERS/UPR and apoptosis 11,12, we examined whether kisspeptin action on β-cells may provoke ERS/UPR. Islets were incubated in 10 nM […]. To control for stimulus for increased insulin biosynthesis and potential UPR response, we incubated islets at 5 and 10 mM glucose. […] Incubation at 10 mM glucose stimulated oxidative stress ERS and NLRP-I markers, but less pronounced than […] at 5 mM glucose. Treatment with […] at high (10 mM) glucose further augmented ERS/UPR, oxidative stress and NLRP3-I markers. Thus, kisspeptin treatment even at normoglycemia stimulates in islets the ERS/UPR response more potently than hyperglycemia (glucose 10 mM) and […] aggravates ERS/UPR induced by hyperglycemia only (Table 5).

Kiss1R [2] = target: T1, Kiss1R; test: Islet perifusion assay, first and second phase GSIS; assay type: cell-based; settings: isolated mouse islets
Description: Perifusion studies were performed as previously published (Song et al., 2013; Song et al., 2011) with slight modifications. The perifusate was Krebs ringer buffer (KRB) (37 C, pH 7.4) containing 0.2% BSA fraction V, 24 mM sodium bicarbonate and was gassed with 95% air and 5% CO2. Perifusion (1 ml/min) occurred for the first 30 minutes with a KRB containing 3 mM glucose for equilibration, after which time the perifusate was collected in 1 ml fractions. After additional 10 minutes, glucose in the perifusate was increased to 10 mM. […] Insulin was measured in selected individual eluent fractions at 30, 35, 40, 42, 45, 50, 55, 60 min (Alpco ELISA). The first 10 minutes after increasing glucose was defined as first phase, the period thereafter was defined as second phase of insulin secretion. At the end of the perifusion protocol, 30 mM KCL was administered into the perifusate to depolarize β-cells. Insulin levels were normalized to total islet protein, which was spectrophotometrically determined (Eppendorf) after completion of the perifusion protocol.

Kiss1R [3] = target: T1, Kiss1R; test: Glucose stimulated insulin secretion (GSIS) from cultured mouse islets, static incubation; assay type: cell-based; parameters: GSIS at very high kisspeptin concentration: dose or concentration left out as unconfirmed
Description: Isolated Islet Studies. Islet isolation was performed by collagenase digestion, gradient centrifugation, and three rounds of microscope-assisted manual picking of islets. Static incubation studies were conducted as previously described with 20 handpicked, equal-sized islets were studied in each group (Song et al., 2011). After overnight culture (37_C, 5% CO2, and 95% O2 in humid chamber) of isolated islets in RPMI 1640 (Mediatech) containing 5 mM glucose, 1% each Na-Pyruvate, HEPES, Penicillin/Streptomycin, and 0.2% BSA, islets were switched to either 10 or 20 mM glucose containing RPMI 1640. Where indicated, Kisspeptin-10 (0-100 nM, and […]), E4 (10 nM), or vehicle (PBS) was added. After 30 min incubation glucose concentrations, supernatant was taken for insulin measurements and pelleted islets were taken in acid ethanol (0.18M HCl in 70% ethanol) for insulin measurements in islets (ELISA, Alpco). Islet protein concentration was measured using the BCA method (Thermo Fisher).
Islet studies. Islet isolation was performed by collagenase digestion, gradient centrifugation and three rounds of microscope-assisted manual picking of islets (Song et al., 2011). Static incubation studies were conducted as previously described with 20 hand-picked equalized islets were studied in each group. Islets were cultured in RPMI 1640 medium (Invitrogen) containing 10 or 20 mM D-glucose (as indicated) and supplemented with 0.2% bovine serum albumin, 1% each Na-Pyruvate, HEPES, Penicillin/Streptomycin. After 30 min incubation glucose concentrations, supernatant was taken for insulin measurements and pelleted islets were taken in acid ethanol (0.18M HCl in 70% ethanol) for insulin measurements in islets (Alpco). Islet protein concentration was measured using the BCA method (Thermo Fisher).
Insulin secretion during static incubation. After overnight culture (37 C, 5% CO2, 95% O2 in humid chamber) of isolated islets in RPMI 1640 (Mediatech) containing 5 mM glucose, 1% each Na-Pyruvate, HEPES, Penicillin/Streptomycin and 0.2% bovine serum albumin (BSA), islets were switched to either 10 or 20 mM glucose containing RPMI 1640. […] After 30 min incubation glucose concentrations, supernatant was taken for insulin measurements and pelleted islets were taken in acid ethanol (0.18M HCl in 70% ethanol) for insulin measurements in islets (ELISA, Alpco). Islet protein concentration was measured using the BCA method (Thermo Fisher).

Kiss1R [4] = target: T1, Kiss1R; test: ipGTT with ip coinjection of kisspeptin and glucose; assay type: in vivo
Description: Intraperitoneal glucose tolerance (ipGTT) and insulin tolerance (ipITT) tests were performed according to standard protocols (Song et al., 2013; Song et al., 2011). After 9 am-3 pm fasting, animals were administered 20% D-glucose (via ip injection), insulin 0.5 U/kg i.p. (Novolin), glucagon (100 μg/kg i.p. (Sigma)). […] Plasma for glucagon measurements was drawn from mice in the fed state at 9 am, unless otherwise noted for fasting studies. Plasma glucagon (Alpco) and kisspeptin1 (USCN Life Sciences Inc. E92559Ra) were measured by ELISA according to manufacturer's instructions including dilution of samples.

Gcgr = target: T2, Gcgr (Mus musculus, UniProt Q61606); test: Gcgr antagonist GAI or inactive analog GAC 60 min before ipGTT in HFD and Lepr db/db mice; assay type: in vivo
T2 construct: endogenous in cells; host or cells: live mice (WT, Gcgrfl/fl, HFD-fed C57Bl/6, Lepr db/db); hepatic receptor
T2 sequence (Q61606 27-485): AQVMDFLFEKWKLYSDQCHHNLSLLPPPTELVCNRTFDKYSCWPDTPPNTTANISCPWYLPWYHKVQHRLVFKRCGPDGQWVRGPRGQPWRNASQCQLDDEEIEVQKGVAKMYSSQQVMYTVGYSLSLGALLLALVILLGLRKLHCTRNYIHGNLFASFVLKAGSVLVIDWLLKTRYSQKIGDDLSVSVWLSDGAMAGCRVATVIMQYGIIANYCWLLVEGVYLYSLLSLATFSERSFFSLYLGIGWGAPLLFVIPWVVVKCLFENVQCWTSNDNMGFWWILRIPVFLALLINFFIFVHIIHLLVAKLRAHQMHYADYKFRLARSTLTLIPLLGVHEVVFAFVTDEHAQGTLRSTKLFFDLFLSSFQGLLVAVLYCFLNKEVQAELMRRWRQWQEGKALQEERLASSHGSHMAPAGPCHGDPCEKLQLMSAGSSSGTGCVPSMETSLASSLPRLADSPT
Description: Intraperitoneal glucose tolerance (ipGTT) and insulin tolerance (ipITT) tests were performed according to standard protocols (Song et al., 2013; Song et al., 2011). After 9 am-3 pm fasting, animals were administered 20% D-glucose (via ip injection), insulin 0.5 U/kg i.p. (Novolin), glucagon (100 μg/kg i.p. (Sigma)). […] The glucagon receptor antagonist GAI (N-(3-Cyano-6-(1,1-dimethylpropyl)-4,5,6,7-tetrahydro-1-benzothien-2-yl)-2-ethylbutanamide (Qureshi et al., 2004) and its non-active analogue were administered (50 mg/kg i.p. in DMSO) in HFD fed and Lepr^db/db mice 60 min before i. GTT. Intraperitoneal pyruvate converstion (1 g/kg i.p.) test (ipPCT) in ΔL-Prkar1a mice was performed in the fed state (9 am) to avoid any confounding effects of fasting-induced elevated endogenous glucagon levels. Tail-vein blood was collected at the indicated times in figures for glucose and insulin measurements. Serum insulin was measured using mouse magnetic bead panel (Millipore, Luminex). Plasma for glucagon measurements was drawn from mice in the fed state at 9 am, unless otherwise noted for fasting studies. Plasma glucagon (Alpco) and kisspeptin1 (USCN Life Sciences Inc. E92559Ra) were measured by ELISA according to manufacturer's instructions including dilution of samples.
Liver Kiss1 Upregulation is Linked to Hyperglucagonemia in DM.

[5] = target: T3, receptor for the incretin hormone glucagon-like peptide-1 (GLP-1) (Mus musculus, UniProt O35659); test: Islet cAMP synthesis in response to exendin-4; assay type: cell-based
T3 construct: from tissue; host or cells: isolated mouse pancreatic islets (Kiss1Rfl/fl and Panc-ΔKiss1R)
T3 sequence (O35659 22-463): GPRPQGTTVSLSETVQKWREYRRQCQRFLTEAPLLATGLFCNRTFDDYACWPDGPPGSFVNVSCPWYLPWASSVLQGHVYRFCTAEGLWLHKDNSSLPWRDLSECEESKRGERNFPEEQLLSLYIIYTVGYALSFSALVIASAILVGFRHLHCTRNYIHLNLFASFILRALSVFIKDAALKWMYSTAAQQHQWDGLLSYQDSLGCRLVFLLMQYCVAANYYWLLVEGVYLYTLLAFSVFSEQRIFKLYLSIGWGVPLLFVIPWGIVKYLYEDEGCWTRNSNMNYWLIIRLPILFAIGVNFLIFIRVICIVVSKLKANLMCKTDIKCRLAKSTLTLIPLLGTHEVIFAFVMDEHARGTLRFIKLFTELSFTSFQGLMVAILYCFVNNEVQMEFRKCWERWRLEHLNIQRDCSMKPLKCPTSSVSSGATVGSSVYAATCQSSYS
Description: as §1

[6] = Kiss1Rfl/fl and Panc-DKiss1R islets

T1 sequence (Q91V45 whole entry): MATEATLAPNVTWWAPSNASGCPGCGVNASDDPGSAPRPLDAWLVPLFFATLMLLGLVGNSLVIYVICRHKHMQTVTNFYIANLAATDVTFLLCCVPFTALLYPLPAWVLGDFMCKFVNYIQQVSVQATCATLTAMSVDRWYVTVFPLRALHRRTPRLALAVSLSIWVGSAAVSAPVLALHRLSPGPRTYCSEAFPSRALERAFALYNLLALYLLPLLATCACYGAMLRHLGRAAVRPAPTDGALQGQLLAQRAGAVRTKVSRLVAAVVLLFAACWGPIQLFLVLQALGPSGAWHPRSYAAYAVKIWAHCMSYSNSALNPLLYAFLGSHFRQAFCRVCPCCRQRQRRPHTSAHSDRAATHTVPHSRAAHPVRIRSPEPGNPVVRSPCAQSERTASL

Gly-Thr-Ser-Leu-Ser-Pro-Pro-Pro-Glu-Ser-Ser-Gly-Ser-Arg-Gln-Gln-Pro-Gly-Leu-Ser-Ala-Pro-His-Ser-Arg-Gln-Ile-Pro-Ala-Pro-Gln- Gly-Ala-Val-Leu-Val-Gln-Arg-Glu- Lys-Asp-Leu-Pro-Asn-Tyr-Asn-Trp-Asn-Ser-Phe-Gly-Leu-Arg-Phe-NH2 [K54]
islet cAMP production in response to exendin-4 (E4) (Kiss1R [1]; Kiss1Rfl/fl (WT) islets): impaired islet cAMP production
islet cAMP concentrations (Kiss1R [1]; WT mouse islets, 10 mM glucose, 10 nM): lower cAMP concentrations
baseline and E4-induced cAMP concentrations in Panc-DKiss1R islets (Kiss1R [1]; islets lacking Kiss1R): not affected
ATF5 (NLRP3 Inflammasome) (islets; Hyperglycemia Glucose 10 mM): 1.9 ± 0.4
CHOP (ER stress) (islets; Hyperglycemia Glucose 10 mM): 2.2 ± 0.5
Catalase (Oxidative stress) (islets; Hyperglycemia Glucose 10 mM): 8.8 ± 0.5
IL-1β (NLRP3 Inflammasome) (islets; Hyperglycemia Glucose 10 mM): 1.9 ± 0.2
IRS2 (cAMP dependent) (islets; Hyperglycemia Glucose 10 mM): 0.6 ± 0.2
PDI (ER stress) (islets; Hyperglycemia Glucose 10 mM): 1.8 ± 0.3
PDX1 (cAMP dependent) (islets; Hyperglycemia Glucose 10 mM): 0.5 ± 0.3
SOD1 (Oxidative stress) (islets; Hyperglycemia Glucose 10 mM): 3.2 ± 0.3
SOD2 (Oxidative stress) (islets; Hyperglycemia Glucose 10 mM): 2.4 ± 0.4
Spliced XBP-1 (ER stress) (islets; Hyperglycemia Glucose 10 mM): 2.1 ± 0.4
TXNIP (NLRP3 Inflammasome) (islets; Hyperglycemia Glucose 10 mM): 5.5 ± 0.3
Total XBP-1 (ER stress) (islets; Hyperglycemia Glucose 10 mM): 1.5 ± 0.3
ATF5 (NLRP3 Inflammasome) (islets; Normoglycemia Glucose 5 mM): 1.4 ± 0.4
CHOP (ER stress) (islets; Normoglycemia Glucose 5 mM): 1.9 ± 0.4
Catalase (Oxidative stress) (islets; Normoglycemia Glucose 5 mM): 6.2 ± 0.6
IL-1β (NLRP3 Inflammasome) (islets; Normoglycemia Glucose 5 mM): 1.7 ± 0.3
IRS2 (cAMP dependent) (islets; Normoglycemia Glucose 5 mM): 0.5 ± 0.3
PDI (ER stress) (islets; Normoglycemia Glucose 5 mM): 1.4 ± 0.4
PDX1 (cAMP dependent) (islets; Normoglycemia Glucose 5 mM): 0.6 ± 0.2
SOD1 (Oxidative stress) (islets; Normoglycemia Glucose 5 mM): 2.1 ± 0.4
SOD2 (Oxidative stress) (islets; Normoglycemia Glucose 5 mM): 1.9 ± 0.3
Spliced XBP-1 (ER stress) (islets; Normoglycemia Glucose 5 mM): 1.8 ± 0.5
TXNIP (NLRP3 Inflammasome) (islets; Normoglycemia Glucose 5 mM): 4.8 ± 1.1
Total XBP-1 (ER stress) (islets; Normoglycemia Glucose 5 mM): 1.4 ± 0.3
E4-potentiated GSIS, first and second phase (Kiss1R [2]): suppressed
first (0-10 min after glucose stimulation) and second phases of GSIS (Kiss1R [2]; 10 mM glucose): suppressed
GSIS at very high kisspeptin concentration (Kiss1R [3]; [6]): GSIS stimulation from both Kiss1Rfl/fl and Panc-DKiss1R islets
lowest concentration suppressing GSIS (Kiss1R [3]; Kiss1Rfl/fl mouse islets, serum-free media, 10 or 20 mM glucose): 0.1 nM
GSIS from Panc-DKiss1R islets (Kiss1R [3]; islets lacking Kiss1R, nanomolar concentrations): impervious to K54-mediated GSIS suppression
E4-potentiated GSIS (Kiss1R [3]; mouse islets cultured at 10 mM glucose, static incubation): dose-dependently suppressed
GSIS from Kiss1Rfl/fl (WT) mouse islets (Kiss1R [3]; static incubation, nanomolar concentrations (0-100 nM), 10 or 20 mM glucose): suppressed GSIS in a dose-dependent manner
in vivo GSIS in control (Kiss1rfl/fl, WT) mice (Kiss1R [4]; 10 nmol ip with glucose during ipGTT): suppressed GSIS
in vivo GSIS in Panc-DKiss1R mice (Kiss1R [4]; 10 nmol ip, mice lacking pancreas Kiss1R): did not affect GSIS
glucose tolerance in WT mice (Kiss1R [4]; acute administration, 10 nmol ip): impaired glucose tolerance

CCC(CC)C(=O)Nc1sc2c(c1C#N)CCC(C(C)(C)CC)C2 (stereo not drawn) [GAI, N-(3-Cyano-6-(1,1-dimethylpropyl)-4,5,6,7-tetrahydro-1-benzothien-2-yl)-2-ethylbutanamide]
liver Kiss1 expression (Gcgr; HFD and Lepr db/db mice): reduction
liver gluconeogenic gene expression (Pparg1a, Src1, G6P, Pck1 mRNA) (Gcgr; HFD and Lepr db/db mice): reduction
liver pCREB (Gcgr; HFD and Lepr db/db mice): corresponding reductions
CREB occupancy of CRE 1 and 2 in the Kiss1 promoter (Gcgr; HFD and Lepr db/db mice, in vivo ChIP): reduces CREB occupancy
basal glycemia and GT (Gcgr; HFD and Lepr db/db mice, single dose 50 mg/kg i.p. 60 min before ipGTT, versus GAC): improved basal glycemia as well as GT
circulating plasma glucagon levels (Gcgr; HFD fed and Lepr db/db mice, fed state, 60 min after treatment): remained unchanged

exendin-4 [E4]
islet cAMP synthesis [5, 6]: stimulates cAMP synthesis
reversal of K10-reduced cAMP production ([5]; isolated WT mouse islets treated with K10): partially reversed
